Assay [1] relates to cucumber powdery mildew pathogen (Sphaerotheca fuliginea). Put plainly: Cucumber powdery mildew control test. It is filed as in vivo. Set-up: scale not given here. The conditions noted are these: for control value: sprayed onto cucumber seedlings. The source says: (Test Example) Cucumber Powdery Mildew Control Test 1) Preparation of Drug Solution for Test […] The other components (II) were each formulated into an aqueous solution or suspension having a predetermined concentration. 2) Test A mixed solution of a component (I) and a component (II) at a predetermined concentration was sprayed onto cucumber seedlings (variety: “Shimo-shirazu, creeping type”, cotyledon stage). After natural drying at room temperature, conidiospores of a cucumber powdery mildew pathogen (Sphaerotheca fuliginea) were inoculated by blushing off, and the seedlings were kept in a thermostatic room at 20° C. using a 12 hour light/dark cycle for 7 to 10 days. The states of lesion development on leaves were examined by comparing with that for the untreated case, and the control values were determined. The test was duplicately carried out. The results are shown in Tables 8 to 12 together with expected values calculated as follows. Expected values were calculated by using Colby's equation: […] Here, E denotes an expected value of a control value, M denotes a control value in using a component (I) alone, and N denotes a control value in using a component (II) alone. If the actually measured control value of a composition of a component (I) and a component (II) is higher than the expected value, E, the composition of a component (I) and a component (II) is said to have exerted synergistic effect.

Assay [2] deals with gray mold pathogen (Botrytis cinerea). Put plainly: Gray mold antimicrobial test (growth inhibition rate). It is filed as cell-based. Set-up: growth inhibition rate, component (II) alone: concentration or dose not given beside the values. How it is done:
(Test Example) Gray Mold Antimicrobial Test (Growth Inhibition Rate)
Conidiospores of a gray mold pathogen (Botrytis cinerea) were added to and dispersed in a yeast extract sucrose medium, and a component (I) and a component (II) dissolved in dimethyl sulfoxide at predetermined concentrations were further added and mixed thereto, and the resulting solution was dispensed onto a 96-well microplate and cultivated in the dark at 20° C. for 3 to 5 days. After the cultivation, the turbidity at a wavelength of 405 nm was measured by a microplate reader and compared with that in the untreated case to determine the growth inhibition rate (%) for the gray mold pathogen. The test was duplicately carried out. The results are shown in Tables 3 to 7 together with expected values calculated as follows.
Expected values were calculated by using Colby's equation: E=M+N−MN/100. Here, E denotes an expected value (%) of a growth inhibition rate, M denotes a growth inhibition rate (%) in using a component (I) alone, and N denotes a growth inhibition rate (%) in using a component (II) alone.
If the actually measured growth inhibition rate (%) of a composition of a component (I) and a component (II) is higher than the expected value, E, the composition of a component (I) and a component (II) is said to have exerted synergistic effect.

The mark [3] stands for this setting: Table 8, ppm or dilution rate: Thiophanate-methyl 1.6, Triflumizole 25, Cyflufenamid 1.6, Iminoctadine acetate 0.25, Iminoctadine albesilate 1, Picarbutrazox 2000, Ipflufenoquin 1, Bacillus subtilis ×250, Pseudomonas rhodesiae ×2000, Sodium hydrogen carbonate 250, Potassium bicarbonate 250, Orange oil 4000, Linalool 4000, Thymol 100, Neem oil 2000, Prothioconazole 1.6, Mancozeb 63, Mineral oil 500.

[4] abbreviates: Table 9, ppm or dilution rate: Thiophanate-methyl 1.6, Triflumizole 25, Cyflufenamid 1.6, Iminoctadine acetate 0.25, Iminoctadine albesilate 1, Picarbutrazox 2000, Ipflufenoquin 1, Bacillus subtilis ×250, Pseudomonas rhodesiae ×2000, Sodium hydrogen carbonate 250, Potassium bicarbonate 250, Orange oil 1000, Linalool 4000, Thymol 100, Neem oil 2000, Prothioconazole 1.6, Mancozeb 63, Mineral oil 500.

Setting [5] is: Table 10, ppm or dilution rate: Thiophanate-methyl 1.6, Triflumizole 25, Cyflufenamid 1.6, Iminoctadine acetate 0.25, Iminoctadine albesilate 1, Picarbutrazox 2000, Ipflufenoquin 1, Bacillus subtilis ×1000, Pseudomonas rhodesiae ×2000, Sodium hydrogen carbonate 250, Potassium bicarbonate 250, Orange oil 1000, Linalool 4000, Thymol 100, Neem oil 2000, Prothioconazole 1.6, Mancozeb 63, Mineral oil 5.

The mark [6] stands for this setting: Table 11, ppm or dilution rate: Thiophanate-methyl 1.6, Triflumizole 25, Cyflufenamid 1.6, Iminoctadine acetate 1, Iminoctadine albesilate 1, Picarbutrazox 2000, Ipflufenoquin 1, Bacillus subtilis ×1000, Pseudomonas rhodesiae ×2000, Sodium hydrogen carbonate 250, Potassium bicarbonate 250, Orange oil 1000, Linalool 4000, Thymol 100, Neem oil 2000, Prothioconazole 1.6, Mancozeb 63, Mineral oil 500.

Where [7] appears, read: Table 12, ppm or dilution rate: Thiophanate-methyl 1.6, Triflumizole 25, Cyflufenamid 1.6, Iminoctadine acetate 0.25, Iminoctadine albesilate 1, Picarbutrazox 2000, Ipflufenoquin 1, Bacillus subtilis ×1000, Pseudomonas rhodesiae ×2000, Sodium hydrogen carbonate 1000, Potassium bicarbonate 250, Orange oil 1000, Linalool 4000, Thymol 400, Neem oil 2000, Prothioconazole 1.6, Mancozeb 63, Mineral oil.

Where [8] appears, read: Table 3, ppm: Ipflufenoquin 10, Cyflufenamid 10, Thiophamate-methyl 0.4, Iminoctadine acetate 0.08, Iminoctadine albesilate 0.08, Triflumizole 0.0032, Picarbutrazox 0.08, Prothioconazole 0.0032, Mefentrifluconazole 0.00064, Cymoxanil 10, Fludioxonil 0.016, Metyltetraprole 0.4, Florylpicoxamid 0.08, Fluxapyroxad 0.08, Fluopyram 0.4, Potassium phosphite 10, Fipronil 2, Chlorantraniliprole 0.016, Aba.

Setting [9] is: Table 4, ppm: Ipflufenoquin 10, Cyflufenamid 2, Thiophamate-methyl 0.4, Iminoctadine acetate 0.08, Iminoctadine albesilate 0.4, Picarbutrazox 10, Prothioconazole 0.0032, Mefentrifluconazole 0.0006, Cymoxanil 10, Fludioxonil 0.016, Metyltetraprole 10, Fluxapyroxad 0.016, Fluopyram 0.4, Potassium phosphite 10, Fipronil 2, Chlorantraniliprole 0.016, Abamectin 0.016, Sulfoxaflor 10, Tebufenozide 0.016.

The mark [10] stands for this setting: Table 5, ppm: Ipflufenoquin 10, Cyflufenamid 10, Thiophamate-methyl 0.4, Iminoctadine albesilate 0.4, Picarbutrazox 0.0032, Mefentrifluconazole 0.0006, Cymoxanil 10, Captan 0.0032, Fludioxonil 0.016, Metyltetraprole 10, Florylpicoxamid 0.0001, Fluxapyroxad 0.016, Fluopyram 0.0032, Potassium phosphite 0.08, Fipronil 2, Chlorantraniliprole 0.016, Abamectin 0.4, Sulfoxaflor 0.4, Tebufenozide 10.

Where [11] appears, read: Table 6, ppm: Ipflufenoquin 10, Cyflufenamid 0.08, Thiophamate-methyl 2, Triflumizole 0.08, Picarbutrazox 0.0016, Prothioconazole 0.0006, Mefentrifluconazole 0.08, Cymoxanil 0.08, Captan 0.08, Fludioxonil 0.016, Metyltetraprole 10, Florylpicoxamid 0.0006, Fluxapyroxad 0.0032, Fluopyram 0.016, Potassium phosphite 0.016, Fipronil 10, Chlorantraniliprole 0.08, Abamectin 2, Sulfoxaflor 0.08, Tebufenoz.

SMILES strings stand for the structures.

On to `COc1ccccc1C(O)Cn1cc(/C(C)=N/OC(C)C)c(=O)n(C[C@H](C)NC(=O)C(C)C)c1=O` (stereo partly drawn) [Compound 4], for which the control value is 78 in assay [1] (Table 11, Examination 1, Compound 4 0.4 ppm alone or mixed with component (II)); 64 in assay [1] (Table 11, Examination 2, Compound 4 0.4 ppm alone or mixed with component (II)); 63 in assay [1] (Table 11, Examination 3, Compound 4 0.4 ppm alone or mixed with component (II)); 59 in assay [1] (Table 11, Examination 4, Compound 4 0.4 ppm alone or mixed with component (II)); 59 in assay [1] (Table 11, Examination 5, Compound 4 0.4 ppm alone or mixed with component (II)); 67 in assay [1] (Table 11, Examination 6, Compound 4 0.4 ppm alone or mixed with component (II)). Moreover, the growth inhibition rate in assay [2] (Table 6, Examination 1, Compound 4 (0.25 or 0.063 ppm) alone or mixed with component (II)) is recorded as 56%; in assay [2] (Table 6, Examination 2, Compound 4 (0.25 or 0.063 ppm) alone or mixed with component (II)), 31%; in assay [2] (Table 6, Examination 3, Compound 4 (0.25 or 0.063 ppm) alone or mixed with component (II)), 6%; in assay [2] (Table 6, Examination 4, Compound 4 (0.25 or 0.063 ppm) alone or mixed with component (II)), 4%; in assay [2] (Table 6, Examination 5, Compound 4 (0.25 or 0.063 ppm) alone or mixed with component (II)) it was 4%; in assay [2] (Table 6, Examination 6, Compound 4 (0.25 or 0.063 ppm) alone or mixed with component (II)) it was 3%.

Turning to `COc1ccc(F)cc1C(O)Cn1cc(/C(C)=N/OC(C)C)c(=O)n(C[C@@H](NC(=O)C(C)C)C(C)C)c1=O` (stereo partly drawn) [Compound 1], the control value is on record as 78 in assay [1] (Table 8, Examination 1, Compound 1 0.4 ppm alone or mixed with component (II)); 64 in assay [1] (Table 8, Examination 2, Compound 1 0.4 ppm alone or mixed with component (II)); 67 in assay [1] (Table 8, Examination 3, Compound 1 0.4 ppm alone or mixed with component (II)); 83 in assay [1] (Table 8, Examination 4, Compound 1 0.4 ppm alone or mixed with component (II)); 75 in assay [1] (Table 8, Examination 5, Compound 1 0.4 ppm alone or mixed with component (II)); 67 in assay [1] (Table 8, Examination 6, Compound 1 0.4 ppm alone or mixed with component (II)). Further, the growth inhibition rate in assay [2] (Table 3, Examination 2, Compound 1 (0.25 or 0.063 ppm) alone or mixed with component (II)) was determined as 52%; in assay [2] (Table 3, Examination 4, Compound 1 (0.25 or 0.063 ppm) alone or mixed with component (II)), 31%.

Take `Cc1nc2c(F)c(F)ccc2cc1Oc1cccc(F)c1C(C)(C)O` [Ipflufenoquin]: the “control value, component (II) alone” value in assay [1] (setting [3]), in assay [1] (setting [4]), in assay [1] (setting [5]), in assay [1] (setting [6]) and in assay [1] (setting [7]) was 27 in each case. In addition, the “growth inhibition rate, component (II) alone” value in assay [2] (setting [8]) was 4%; in assay [2] (setting [9]) it was 4%; in assay [2] (setting [10]), 4%; in assay [2] (setting [11]), 4%; in assay [2] (Table 7, ppm: Ipflufenoquin 0.08, Cyflufenamid 0.08, Thiophamate-methyl 2, Iminoctadine acetate 0.0001, Iminoctadine albesilate 0.4, Triflumizole 0.4, Prothioconazole 0.0032, Mefentrifluconazole 0.08, Cymoxanil 0.08, Captan 0.08, Fludioxonil 0.08, Metyltetraprole 0.0032, Florylpicoxamid 0.0006, Fluxapyroxad 0.016, Fluopyram 0.0032, Potassium phosphite 0.016, Fipronil 2, Chlorantraniliprole 0.016), 0%.

In the case of `Cn1nnnc1/C(=N\OCc1cccc(NC(=O)OC(C)(C)C)n1)c1ccccc1` [Picarbutrazox], the “control value, component (II) alone” value in assay [1] (setting [3]), in assay [1] (setting [4]), in assay [1] (setting [5]), in assay [1] (setting [6]) and in assay [1] (setting [7]) was 50 in each case. The “growth inhibition rate, component (II) alone” value in assay [2] (setting [8]) came out at 0%; in assay [2] (setting [9]), 12%; in assay [2] (setting [10]) it was 1%; in assay [2] (setting [11]), 12%.

(Values after patent publication US20240260575A1, “AGRICULTURAL AND HORTICULTURAL FUNGICIDAL COMPOSITION” (Nippon Soda Co., Ltd., priority 2021, published 2024).)
